Assay results as given in US11427556B2, “Urea derivatives as inhibitors of ASK1” (Hepagene Therapeutics (HK) Limited, priority 2017, dated 2022).
Where two headings read alike, the source gives them in different places.

Biological target: T1, Recombinant human ASK1 kinase (Homo sapiens, UniProt Q99683)
T1 construct: purchased Invitrogen Inc
T1 sequence (Q99683 1-1374): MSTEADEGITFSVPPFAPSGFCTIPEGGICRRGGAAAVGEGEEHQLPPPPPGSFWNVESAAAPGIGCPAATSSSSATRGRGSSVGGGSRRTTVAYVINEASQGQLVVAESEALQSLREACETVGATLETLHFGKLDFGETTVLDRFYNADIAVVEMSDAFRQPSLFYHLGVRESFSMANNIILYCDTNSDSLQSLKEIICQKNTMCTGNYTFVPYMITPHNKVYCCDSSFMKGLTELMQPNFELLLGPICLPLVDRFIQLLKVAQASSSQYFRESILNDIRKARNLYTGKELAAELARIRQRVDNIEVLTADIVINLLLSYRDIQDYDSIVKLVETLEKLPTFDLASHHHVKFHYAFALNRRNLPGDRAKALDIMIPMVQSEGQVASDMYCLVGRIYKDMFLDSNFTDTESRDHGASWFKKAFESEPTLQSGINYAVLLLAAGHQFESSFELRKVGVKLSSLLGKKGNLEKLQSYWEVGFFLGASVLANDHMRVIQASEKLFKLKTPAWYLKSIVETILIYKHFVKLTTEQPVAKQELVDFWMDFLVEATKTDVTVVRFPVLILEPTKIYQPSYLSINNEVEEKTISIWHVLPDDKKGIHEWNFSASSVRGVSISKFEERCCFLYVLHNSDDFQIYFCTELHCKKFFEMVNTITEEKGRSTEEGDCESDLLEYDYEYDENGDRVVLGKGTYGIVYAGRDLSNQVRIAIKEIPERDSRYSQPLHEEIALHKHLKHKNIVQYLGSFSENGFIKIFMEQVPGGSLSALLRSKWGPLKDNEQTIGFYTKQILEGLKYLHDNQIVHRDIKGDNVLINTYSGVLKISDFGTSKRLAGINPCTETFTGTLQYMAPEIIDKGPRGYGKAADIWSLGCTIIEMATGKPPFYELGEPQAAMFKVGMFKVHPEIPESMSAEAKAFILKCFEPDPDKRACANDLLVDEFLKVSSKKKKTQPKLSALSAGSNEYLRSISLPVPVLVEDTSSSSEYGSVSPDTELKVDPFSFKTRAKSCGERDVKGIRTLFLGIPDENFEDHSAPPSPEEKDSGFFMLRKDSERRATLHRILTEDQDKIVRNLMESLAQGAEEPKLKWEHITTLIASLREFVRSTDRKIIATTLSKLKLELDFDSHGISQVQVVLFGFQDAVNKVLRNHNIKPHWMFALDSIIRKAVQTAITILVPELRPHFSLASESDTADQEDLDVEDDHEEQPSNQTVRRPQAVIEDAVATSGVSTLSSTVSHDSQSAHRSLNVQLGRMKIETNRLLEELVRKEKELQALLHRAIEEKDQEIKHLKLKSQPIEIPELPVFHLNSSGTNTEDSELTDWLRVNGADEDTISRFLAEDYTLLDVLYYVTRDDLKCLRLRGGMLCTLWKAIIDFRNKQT
Experiment: ASK1 kinase HTRF assay (HTRF KinEASE-STK, phosphorylation of biotinylated peptide substrate)
Type: biochemical
Procedure, shortened: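 HTRF KinEASE-STK read-out of biotinylated peptide phosphorylation. Compound incubated with 3 nM ASK1 and 1 uM STK-substrate-biotin in kinase buffer containing 5 mM MgCl2 and 1 mM DTT.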

[1] = 3 nM ASK1 kinase, 1 uM STK-substrate-biotin, HTRF detection, read-out: EC50

Structure (SMILES)	EC50 [1] [nM]	EC50 [nM]
C[C@H](CO)n1cnnc1-c1cccc(N2CCN(c3ccc(C(=O)N4CCNCC4)cn3)C2=O)n1 [Compound V-27]	< 50	–
C[C@H](CO)n1cnnc1-c1cccc(NC(=O)Nc2cc(C(=O)N3CCCC[C@@H]3C)ccn2)n1 [Compound I-119]	< 50	–
C[C@H](CO)n1cnnc1-c1cccc(-n2ccn(-c3ccc(N4CCOCC4)cn3)c2=O)n1 [III-10]	< 50	–
COc1ccnc(NC(=O)Nc2cccc(-c3nncn3[C@@H](C)CO)n2)c1 [Compound I-054]	50 to 500	–
CC(C)n1cnnc1-c1cccc(NC(=O)Nc2cc(C(=O)NC3CCCCC3)ccn2)n1 [Compound I-151]	< 50	–
C[C@H](CO)n1cnnc1-c1cccc(NC(=O)Nc2cc(C(=O)N3CCCc4ccccc43)ccn2)n1 [Compound I-124]	< 50	–
C[C@H](CO)n1cnnc1-c1cccc(NC(=O)Nc2cc(-c3ccc(C4CC4)nc3)ccn2)n1 [Compound I-002, 3-[4-(6-Cyclopropylpyridin-3-yl)pyridin-2-yl]-1-(6-{4-[(2R)-1-hydroxypropan-2-yl]-4H-1,2,4-triazol-3-yl}pyridin-2-yl)urea]	< 50	–
CC(C)n1cnnc1-c1cccc(NC(=O)Nc2cc(NS(=O)(=O)c3ccccc3)ccn2)n1 [Compound I-015, 3-(4-Benzenesulfonamidopyridin-2-yl)-1-[6-[4-(propan-2-yl)-4H-1,2,4-triazol-3-yl]pyridin-2-yl]urea]	< 50	–
CC(C)n1cnnc1-c1cccc(NC(=O)Nc2cc(C(=O)N3CCCC3)ccn2)n1 [Compound I-145]	–	< 50
C[C@H](CO)n1cnnc1-c1cccc(NC(=O)Nc2cc(C(=O)N3CCC4(CCCCC4)CC3)ccn2)n1 [Compound I-129]	< 50	–
C[C@H](CO)n1cnnc1-c1cccc(NC(=O)Nc2cc(C(=O)Nc3ccccc3)ccn2)n1 [Compound I-153]	< 50	–
CC(C)n1cnnc1-c1cccc(NC(=O)Nc2cc(C(=O)Nc3cccc(F)c3)ccn2)n1 [Compound I-157]	< 50	–
CC(C)n1cnnc1-c1cccc(NC(=O)Nc2cc(C(=O)Nc3ccc4ccccc4c3)ccn2)n1 [Compound I-154]	< 50	–
C[C@H](CO)n1cnnc1-c1cccc(N2CCN(c3ccc(C(=O)N4CCOCC4)cn3)C2=O)n1 [Compound V-26]	< 50	–
C[C@H](CO)n1cnnc1-c1cccc(NC(=O)Nc2cc3ccccc3cn2)n1 [Compound I-058]	< 50	–
CC(C)n1cnnc1-c1cccc(NC(=O)Nc2cc(S(=O)(=O)Nc3ccccc3)ccn2)n1 [Compound I-014, 1-[4-(Phenylsulfamoyl)pyridin-2-yl]-3-[6-[4-(propan-2-yl)-4H-1,2,4-triazol-3-yl]pyridin-2-yl]urea]	< 50	–

Structure (SMILES)	EC50 [1] [nM]	EC50 [nM]
C[C@H](CO)n1cnnc1-c1cccc(NC(=O)Nc2cc(C(=O)N3CCC(O)CC3)ccn2)n1 [Compound I-137]	< 50	–
CC(C)n1cnnc1-c1cccc(N2CCN(c3ccc(-c4ccncc4)cn3)C2=O)n1 [Compound V-07]	< 50	–
C[C@H](CO)n1cnnc1-c1cccc(NC(=O)Nc2cc(C(=O)N3CCCC3)ccn2)n1 [Compound I-146]	–	< 50
CC(C)n1cnnc1-c1cccc(NC(=O)Nc2cc(C(=O)N3CCCC[C@@H]3C)ccn2)n1 [Compound I-118]	< 50	–
C[C@H](CO)n1cnnc1-c1cccc(NC(=O)Nc2cc(N3CCNCC3)ccn2)n1 [Compound I-096]	< 50	–
CC(C)n1cnnc1-c1cccc(NC(=O)Nc2cc(C(=O)N3CCCc4ccccc43)ccn2)n1 [Compound I-123]	< 50	–
C[C@H](CO)n1cnnc1-c1cccc(NC(=O)Nc2cc(C(=O)Nc3ccncc3)ccn2)n1 [Compound I-164]	< 50	–
CC(C)n1cnnc1-c1cccc(NC(=O)Nc2cc(C(=O)N3C4CCCC3CC4)ccn2)n1 [Compound I-149]	< 50	–
CC1CN(c2ccc(N3CCN(c4cccc(-c5nncn5C(C)C)n4)C3=O)nc2)CCO1 (stereo not shown) [Compound V-17]	< 50	–
C[C@H](CO)n1cnnc1-c1cccc(NC(=O)Nc2cc(C(=O)Nc3ccc(F)cc3)ccn2)n1 [Compound I-159]	< 50	–
CC(C)n1cnnc1-c1cccc(N2CCN(c3ccc(-c4ccc(F)cc4)cn3)C2=O)n1 [Compound V-06]	< 50	–
CC(C)n1cnnc1-c1cccc(NC(=O)Nc2cc(C(=O)Nc3ccc(C(C)(C)C)cc3)ccn2)n1 [Compound I-160]	< 50	–
CC(C)n1cnnc1-c1cccc(NC(=O)Nc2cc(C(=O)N3CCCC[C@H]3C)ccn2)n1 [Compound I-120]	< 50	–
CC(C)n1cnnc1-c1cccc(N2CCN(c3ccc(N4CCOCC4)cn3)C2=O)n1 [Compound V-12]	< 50	–
CCN1CCN(c2ccnc(NC(=O)Nc3cccc(-c4nncn4C(C)C)n3)c2)CC1 [Compound I-099]	< 50	–
CC(C)n1cnnc1-c1cccc(NC(=O)Nc2cc(C(=O)N3CCC(N4CCOCC4)CC3)ccn2)n1 [Compound I-130]	< 50	–

Continued, in another order:

EC50 [1] [nM]	Structure (SMILES)	EC50 [nM]
< 50	CC(C)n1cnnc1-c1cccc(NC(=O)Nc2cc(N3CCOCC3)ccn2)n1 [Compound I-094]	–
< 50	CC(C)n1cnnc1-c1cccc(NC(=O)Nc2ccc(I)cn2)n1 [Compound I-174]	–
< 50	Cc1cccnc1NC(=O)Nc1cccc(-c2nncn2C(C)C)n1 [Compound I-039]	–
< 50	CC(C)n1cnnc1-c1cccc(NC(=O)Nc2cccc(C(F)(F)F)n2)n1 [Compound I-196]	–
< 50	CC(C)n1cnnc1-c1cccc(NC(=O)Nc2ncccc2Br)n1 [Compound I-176]	–
50 to 500	CC(CN)n1cnnc1-c1cccc(NC(=O)Nc2ccccn2)n1 (stereo not shown) [Compound I-030]	–
< 50	CC(C)n1cnnc1-c1cccc(NC(=O)Nc2ccc(Br)cn2)n1 [Compound I-178]	–
< 50	CC(C)n1cnnc1-c1cccc(NC(=O)Nc2cc(C(=O)Nc3ccncc3)ccn2)n1 [Compound I-163]	–
50 to 500	COCC(C)n1cnnc1-c1cccc(NC(=O)Nc2ccccn2)n1 (stereo not shown) [Compound I-031]	–
< 50	CC(C)n1cnnc1-c1cccc(NC(=O)Nc2ccc(C(F)(F)F)cn2)n1 [Compound I-195]	–
< 50	Cc1cccc(NC(=O)Nc2cccc(-c3nncn3C(C)C)n2)n1 [Compound I-040]	–
< 50	CC(C)n1cnnc1-c1cccc(NC(=O)Nc2ccc(-c3ccncc3)cn2)n1 [Compound I-090]	–
< 50	CC(C)n1cnnc1-c1cccc(NC(=O)Nc2ccc(-c3ccccn3)cn2)n1 [Compound I-088]	–
< 50	CC(C)n1cnnc1-c1cccc(NC(=O)Nc2nc3ccccc3o2)n1 [Compound I-216]	–
< 50	Cc1ccnc(NC(=O)Nc2cccc(-c3nncn3C(C)C)n2)c1 [Compound I-038]	–
50 to 500	Cc1ccc(NC(=O)Nc2cccc(-c3nncn3[C@@H](C)CO)n2)nc1 [Compound I-037]	–
< 50	CC(C)n1cnnc1-c1cccc(NC(=O)Nc2cc(C(C)(C)O)ccn2)n1 [Compound I-213]	–
50 to 500	CC(C)n1cnnc1-c1cccc(NC(=O)Nc2ncccc2-c2ccccc2)n1 [Compound I-075]	–
50 to 500	Cc1ccc(NC(=O)Nc2cccc(-c3nncn3C(C)C)n2)cc1 [Compound I-017]	–
< 50	CC(C)n1cnnc1-c1cccc(NC(=O)Nc2ccc(-n3cnc(C4CC4)c3)cn2)n1 [Compound I-169]	–
< 50	CC(C)n1cnnc1-c1cccc(NC(=O)Nc2ncccc2F)n1 [Compound I-186]	–
< 50	CC(C)n1cnnc1-c1cccc(NC(=O)Nc2ccc(N3CCOCC3)cn2)n1 [Compound I-093]	–
< 50	CC(C)n1cnnc1-c1cccc(NC(=O)Nc2ccc(N3CCCC3)cn2)n1 [Compound I-165]	–
< 50	CC(C)n1cnnc1-c1cccc(NC(=O)Nc2cc(-c3ccncc3)ccn2)n1 [Compound I-087]	–
50 to 500	CC(C)n1cnnc1-c1cccc(NC(=O)Nc2ccc(-n3ccnc3)cn2)n1 [Compound I-168]	–
50 to 500	CC(C)n1cnnc1-c1cccc(NC(=O)Nc2cccc(N3CCCC3)n2)n1 [Compound I-166]	–
